Experimental data as given in patent publication US4297276A, “Thymosin beta 3 and beta 4” (Hoffman-La Roche Inc., priority 1980, dated 1981).
Numbered stars: 1 amine (or outer) side, 2 acyl side, 3 side chain; on linkers, the order of the positions; unused ones are H or OH. Bridge positions count the residues as written; N and C are the ends. Square brackets hold non-standard residues; d marks the D form. Peptide text beside a SMILES is read from it. I, II: the chains in the order shown. Actinocin(9to1) = Cc1c2oc3c(C)ccc(C(=O)[*:1])c3nc-2c(C(=O)[*:2])c(N)c1=O; NMeV = CN[C@H](C(=O)O)C(C)C; Sar = CNCC(=O)O

Tests used:
[1] = system: terminal deoxynucleotidyl transferase (TdT); assay: In vitro induction of TdT in fraction B bone marrow cells from NIH Swiss nu/nu mice; assay type: cell-based; conditions: for TdT induction relative to the thymosin fraction 5 level: BSA fraction B from bone marrow; for TdT specific activity: peak I activity only, incubation 18 hours with 50 ng/ml
From the text: The method of Raidt et al., J. Exp. Med. 128, 681 (1968) was used to fractionate different cell suspensions from spleen, thymus, lymph nodes or bone marrow. Four layers of cells were formed at the interfaces of the discontinuous BSA gradient: Fraction A between 10% and 23% BSA; fraction B between 23-26%; fraction C between 26-29%; and fraction D between 29-33% BSA. BSA (Path-O-Cyte 5, lots 25 and 26) was obtained from Miles Research Products (Elkhart, Ind.). Fractionated cells were washed three times in Ham's F-12 medium.
(§1) The procedure for enzyme extraction has been described previously by Pazmino et al., J. Immunol. 119, 494 (1977).
(§2) The TdT assay was adapted from Kung et al, J. Exp. Med. 141, 855 (1975). One unit of enzyme activity was defined as the amount catalyzing the incorporation of 1 pmol of dGTP into acid insoluble material per hour. The specific activity was calculated from the total enzyme activity recovered from phosphocellulose per 10^8 nucleated viable cells.
Ten daily injections of 100 μg were given intraperitoneally to six-week-old NIH Swiss nu/nu, which were sacrificed 24 hours after the last injection. For the in vitro induction experiments, cells were washed three times after BSA gradient fractionation in Ham's F-12 medium containing 100 U/ml penicillin, 100 μg/ml streptomycin and 10 μg/ml gentomycin. After being washed, cell concentrations were adjusted to 1×10^8 cells/dish in 20 ml of Ham's F-12 medium containing antibiotics, 5% fetal bovine serum (Flow Laboratories, Rockville, Md.) and different concentrations of thymosin or spleen fraction 5 or of any of the different peptides isolated from thymosin. After incubation for various periods of time, cells were collected, washed twice with Ham's F-12 and extracted as previously described for TdT activity.
The following peptides, isolated from thymosin, were assayed for their ability to induce TdT in vitro: α1, β1, β3, β4, and synthetic α-1.
(§3) Actinomycin D at 0.5 μg/ml was incubated for 12 hours in the presence of thymosin with fraction B from the bone marrow of NIH Swiss nu/nu mice to study their effect on TdT induction. To follow the effect of Actinomycin D on RNA synthesis, cells were labeled with [^3 H] uridine (10 μCi/ml) for the last 90 minutes of incubation.

RNA synthesis = assay: Effect of Actinomycin D on RNA synthesis ([3H] uridine labeling) in fraction B bone marrow cells; assay type: cell-based, mice; conditions: 0.5 μg/ml, 12 hours, in the presence of thymosin
Description: as §3

[2] = system: TdT positive cells in T-cell populations; conditions: partially purified peptides; Low and Goldstein 1978; cited from earlier work
[3] = Isoelectric focusing (isoelectric point); assay type: physicochemical
Description: Isoelectric focusing was conducted for 90 minutes using a constant power of 25 watts (LKB Model 2103 power supply). The gels were fixed in 20% trichloroacetic acid for one hour. They were stained in 0.1% Coomassie Blue in 20% trichloroacetic acid and destained in 10% trichloroacetic acid.

[4] = system: terminal deoxynucleotidyl transferase (TdT); assay: In vivo TdT assay in thymocytes from hydrocortisone acetate treated C57BL/6J mice; conditions: for TdT specific activity: daily for 9 to 11 days, thymocytes
Description: as §1, §2
Thymosin activity was also tested by a in vivo TdT assay. Different doses of thymosin fraction 5 and other purified thymosin polypeptides were injected into hydrocortisone acetate treated C57BL/6J mice daily for 9 to 11 days. The animals were sacrificed, thymocytes prepared and TdT activity determined using the method described by Pazmino et al., J. Immunol. 119, 494 (1977). […]

[5] = FIG. 3, bone marrow fraction B cells

Molecule	effect on induction of TdT by thymosin ([1]; 0.5 μg/ml actinomycin D, 12 hours, in the presence of thymosin)	inhibition of RNA synthesis (RNA synthesis)	shape of TdT dose response [1]	TdT induction relative to the thymosin fraction 5 level [1] [%]	TdT specific activity [1]	induction of TdT positive cells in T-cell populations [2]	isoelectric point (pI) [3]	concentration with significant TdT induction [1, 5] [ng/mL]	optimal concentration for TdT induction [1, 5] [ng/mL]	effect on TdT induction at higher concentrations ([1]; FIG. 3, β3 even at 500 ng/ml)	TdT specific activity ([4]; 1 μg/infection)	TdT specific activity ([4]; 10 μg/infection)	activity in inducing TdT in vivo compared with thymosin fraction 5 ([4]; One μg of β3 vs 100 μg of thymosin fraction 5)
Cc1c2oc3c(C)ccc(C(=O)N[C@@H]4C(=O)N[C@H](C(C)C)C(=O)N5CCC[C@H]5C(=O)N(C)CC(=O)N(C)[C@@H](C(C)C)C(=O)O[C@@H]4C)c3nc-2c(C(=O)N[C@@H]2C(=O)N[C@H](C(C)C)C(=O)N3CCC[C@H]3C(=O)N(C)CC(=O)N(C)[C@@H](C(C)C)C(=O)O[C@@H]2C)c(N)c1=O [actinomycin D, Actinomycin D, reference compound] (I: T[dV]P[Sar][NMeV] / II: T[dV]P[Sar][NMeV]; ester I:1-I:C, II:1-II:C; linker I:N-II:N via Actinocin(9to1))	inhibited, as is the induction of TdT	greater than 95%	–	–	–	–	–	–	–	–	–	–	–
Thymosin β4	–	–	increases as the doses increase	30	58.0 picomoles 3HdGTP/hour/10^8 cel	induce TdT positive cells	5.1	–	–	–	–	–	–
Thymosin β3	–	–	increases as the doses increase	~80	145.0 picomoles 3HdGTP/hour/10^8 cel	induce TdT positive cells	5.2	1	10	no inhibition of induction was observed	2758.6 p moles (3HdGTP/30 min/10^8 ce	2954.3 p moles (3HdGTP/30 min/10^8 ce	as active in inducing TdT in vivo as 100 μg of thymosin fraction 5
